Assay results taken from US12636266B2 (Rivo Bio, Inc., priority 2024, dated 2026).

Tests used:
[1] = Z to E isomer conversion by NMR; type: physicochemical; conditions: shortly following synthesis
Description: Compound 5, described here with structure shown in Scheme 1, is the stable E isomer. However, the initial reaction in Scheme 1 with compound 5-1 produces both the E and Z isomers of 5-2b. Column chromatography was used to separate the isomers and each isomer was then carried through the next three reactions separately, to produce both compound 5 and its Z isomer.

[2] = target: T1, human recombinant 5-HT2A receptor (Homo sapiens, UniProt P28223); experiment: IPOne HTRF agonist assay, percent activity at 5-HT2A; type: cell-based; conditions: relative to a-Me-5-HT, CHO-K1 cells; for activation at 0.3 µM / activation at 30 µM: 1 h, read-out: Percent (a-Me-5-HT) Activity at 5-HT2A (30 uM/0.3 μM)
T1 construct: host or cells: CHO-K1
Description: Example 16: Percent (α-Me-5-HT) Activity at 5-HT2A Assay
Compounds were tested in the IPOne HTRF (Homogeneous Time Resolved Fluorescence) assay at Epics Therapeutics S.A. (Belgium). Briefly, CHO-K1 cells expressing human recombinant 5-HT2A receptor grown to mid-log phase in culture media without antibiotics were detached with PBS-EDTA, centrifuged and resuspended in medium without antibiotics buffer. 20,000 cells were distributed in a 96 well plate and incubated overnight at 37° C. with 5% CO2. For agonist testing (384-well, suspension), 5 μl of cells were dispensed on 5 μl of test compound or reference agonist in each well and the plate was incubated for 60 min. at 37° C. with 5% CO2. IP1-D2 reagent and anti-IP1 cryptate reagents were then dispensed in the wells and IP1 concentrations were then measured following the manufacturer recommendations.

[3] = target: T1, human recombinant 5-HT2A receptor; experiment: as above; type: cell-based; conditions: relative to 5-HT

T1 sequence (P28223 whole entry): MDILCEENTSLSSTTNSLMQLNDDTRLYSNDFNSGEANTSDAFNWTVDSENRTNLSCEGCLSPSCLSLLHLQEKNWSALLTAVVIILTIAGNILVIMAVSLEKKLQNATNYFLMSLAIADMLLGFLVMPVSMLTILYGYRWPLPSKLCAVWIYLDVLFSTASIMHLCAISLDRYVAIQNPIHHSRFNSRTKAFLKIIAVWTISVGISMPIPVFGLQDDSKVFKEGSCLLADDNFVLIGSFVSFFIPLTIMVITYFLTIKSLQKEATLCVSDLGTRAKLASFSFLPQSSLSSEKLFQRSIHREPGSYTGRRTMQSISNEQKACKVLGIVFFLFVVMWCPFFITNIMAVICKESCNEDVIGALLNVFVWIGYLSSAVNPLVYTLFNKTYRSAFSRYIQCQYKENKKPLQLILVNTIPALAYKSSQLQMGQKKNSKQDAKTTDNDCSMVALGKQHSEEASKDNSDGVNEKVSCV

Compound	Percent (a-Me-5-HT) Activity at 5-HT2A (30 uM/0.3 μM) ([2]; 0.3 μM (second value))	Percent (a-Me-5-HT) Activity at 5-HT2A (30 uM/0.3 μM) ([2]; 30 uM (first value))	further results
COc1ccc2c(c1)/C(=C\C=O)CC2 (single isomer, unassigned) [Z isomer of compound 5-4]	–	–	Z isomer converting to the E isomer (by NMR) [1]: 40%
COc1ccc2c(c1)/C(=C(/F)CN(C)C)CC2 [Compound 23, N,N-Dimethyl[(E)-2-(6-methoxy-1-indanylidene)-2-fluoroethyl]amine]	–	–	activation at 0.3 µM ([2]; 0.3 μM (second value)): -1%; activation at 30 µM ([2]; 30 uM (first value)): -2%
COC1C/C(=C\CN)c2ccccc21 (stereo not shown) [Compound 29]	6%	53%	–
CN(C)C/C=C1\CCc2ccc3c(c21)CCO3 [Compound 14, N,N-Dimethyl[(E)-2-(3-oxa-1,2,6,7-tetrahydro-as-indacen-8-ylidene)ethyl]amine]	6%	33%	–
CCC(N)/C=C1\CCc2ccccc21 (stereo not shown) [Compound 101, 1-[(E)-(1-Indanylidene)methyl]propylamine]	15%	20%	–
CN(C)C/C=C1\C=Cc2ccccc21 [Compound 22, N,N-Dimethyl[(E)-2-(1-indenylidene)ethyl]amine]	5%	49%	–
FC(F)(F)Oc1ccc2c(c1)/C(=C/CN1CCC1)CC2 [Compound 27, 1-[(E)-2-(6-Trifluoromethoxy-1-indanylidene)ethyl]azetidine]	5%	8%	–
COc1ccc2c(c1)CC/C2=C\CN(C)C [Compound 26, N,N-Dimethyl[(E)-2-(5-methoxy-1-indanylidene)ethyl]amine]	–	–	activation at 0.3 µM ([2]; 0.3 μM (second value)): 10%; activation at 30 µM ([2]; 30 uM (first value)): -1%
COc1ccc2c(c1)/C(=C/CN(C)C)CC2 [Compound 5, N,N-Dimethyl[(E)-2-(6-methoxy-1-indanylidene)ethyl]amine]	74%	96%	Percent (5-HT) Activity at 5-HT2A (30 μM) [3]: 92%
C(/CN1CCC1)=C1/CCc2ccc3c(c21)CCO3 [Compound 24, 1-[(E)-2-(3-Oxa-1,2,6,7-tetrahydro-as-indacen-8-ylidene)ethyl]azetidine]	17%	38%	–
CN(C)C/C=C1\CCc2sccc21 [Compound 31, N,N-Dimethyl[(E)-2-{2-thiabicyclo[3.3.0]octa-1(5),3-dien-6-ylidene}ethyl]amine]	3%	2%	–
OCc1ccc2c(c1)/C(=C/CN1CCC1)CC2 [Compound 103, {(E)-3-[2-(1-Azetidinyl)ethylidene]-5-indanyl}methanol]	9%	94%	–
COc1ccc2c(c1)/C(=C/CN1CCC1)CC2 [Compound 12, 1-[(E)-2-(6-Methoxy-1-indanylidene)ethyl]azetidine]	27%	47%	–
COC1C/C(=C\CN2CCC2)c2ccccc21 (stereo not shown) [Compound 30, 1-[(E)-2-(3-Methoxy-1-indanylidene)ethyl]azetidine]	3%	24%	–
COc1ccc2c(c1)CC/C2=C\CN1CCC1 [Compound 25, 1-[(E)-2-(5-Methoxy-1-indanylidene)ethyl]azetidine]	–	–	activation at 0.3 µM ([2]; 0.3 μM (second value)): 0%; activation at 30 µM ([2]; 30 uM (first value)): -3%
COc1ccc2c(c1)/C(=C(\F)CN(C)C)CC2 [Compound 10, N,N-Dimethyl[(Z)-2-(6-methoxy-1-indanylidene)-2-fluoroethyl]amine]	4%	1%	–
C(/CN1CCC1)=C1/CCc2cccnc21 [Compound 28, 1-[(E)-2-(4-Aza-3-indanylidene)ethyl]azetidine]	5/5%	5/5%	–
